{"source": "patent US20090123581A1", "about": "“COLLAGEN CROSS-LINKING AGENTS ON DENTAL RESTORATIVE TREATMENT AND PREVENTIVE DENTISTRY” (THE BOARD OF TRUSTEES OF THE UNIVERSITY OF ILLINOIS, priority 2006, published 2009)", "key": {"[1]": {"experiment": "Ultimate tensile strength (UTS) of undemineralized (mineralized) dentin after cross-linker treatment (Example 1)", "design": "species or system human", "conditions": "0.625% GE or 5% GD; for Ultimate tensile strength, mean: pH 7.4", "text": "Fixation Processes: Ten sound freshly extracted human molars were used in this study. The teeth were thawed, cleaned of adhering soft tissues, and the occlusal surfaces were ground flat with #320 grit Silicon Carbide paper under running water to remove part of the enamel. Flattening of the occlusal surface by removal of the cusps enables accurate sectioning of samples in beam shape. Teeth were sectioned into 0.5±0.1 by 0.5±0.1 mm thick beams (n=20 beams per tooth) with a slow speed diamond wafering blade (Buehler-Series 15LC Diamond, Lake Bluff, Ill., USA) under constant water coolant (FIG. 1A).\nThe slabs were randomly divided into two groups: 1) undemineralized dentin and 2) demineralized dentin (FIG. 1A). In Group 2, dentin beams were immersed in 10% phosphoric acid solution (Fisher Scientific, New Jersey, N.J.) for a period of 5 hours. X-rays were taken from the specimens to verify complete tissue demineralization. Specimens were thoroughly rinsed with distilled water for 10 minutes to remove any residue of the phosphoric acid.\nSpecimens from groups 1 and 2 were subdivided according to the dentin treatment (FIG. 1B). In Treatment A, specimens were immersed in PBS solution (pH: 7.4) as a control. In Treatment B, specimens were immersed in 0.5% Proanthocyanidin (MegaNatural—Polyphenolics Ind.) PBS solution (PA) at a pH of 7.4. In Treatment C, specimens were immersed in 0.625% Genipin (Wako Pure Chemical Ind.) PBS solution (GE) at a pH of 7.4. In Treatment D, specimens were immersed in 5% glutaraldehyde solution (GD) (Fisher Scientific, New Jersey, N.J.) at a pH of 7.4. Specimens were kept in their respective solutions for 4 and 40 hours at room temperature. After the incubation periods, specimens were thoroughly rinsed with distilled and deionized water to remove any remains of cross-linking agents and buffer.\nUTS testing: For UTS evaluation, the specimens were glued with a cyanoacrylate adhesive (Zapit—Dental Ventures of America Inc., Corona, Calif.) to a Ciucchi's jig, which was mounted on a universal testing machine (EZ Test, Shimazu Co., Kyoto, Japan) and subjected to microtensile testing at a crosshead speed of 1 mm/min (FIG. 1C). Means and standard deviations were calculated and expressed in microtensile bond strengths (MPa). Statistical analysis was performed using a two-way ANOVA and Fisher's PLSD tests (p<0.05)."}, "[2]": {"experiment": "Microtensile bond strength of adhesive restoration to caries-affected dentin (Example 2)", "design": "species or system human", "conditions": "caries-affected demineralized dentin; 5% glutaraldehyde for 5 minutes; versus control", "method": "(§1) Effect of an exogenous collagen cross-linking agent on dentin bonding: In order to analyze the contribution of exogenous collagen cross-linking to sound and caries-affected dentin bonding, demineralized dentin surfaces were treated with 5% glutaraldehyde and the restored specimens were subjected to microtensile bond strength testing.\n(§2) Specimen preparation: Six human molars stored frozen (−20° C.) for less then one month were used. The teeth presented occlusal caries in which enamel was visually intact. The teeth were thawed, cleaned of adhering soft tissues, and the occlusal surfaces were ground flat with #320 and #600 grit Silicon Carbide (Sic) papers under running water to remove the enamel and expose flat middle dentin, respectively. […]\n(§3) Microtensile bond test (MTB): After 24 hrs in water at 37° C., the teeth were sectioned into 0.7±0.2 mm thick slabs, and the interfaces trimmed to an hourglass shape using a fine diamond bur to produce a cross-sectional area of 1 mm^2. The thickness of the slabs and the width of the trimmed surface were measured using a digital caliper (Fisher Scientific, New Jersey, N.J.) and specimens in sound and caries-affected dentin were obtained. […] MPa were determined by dividing the fracture load by the cross-sectional area of the interface."}, "[3]": {"experiment": "Microtensile bond strength of adhesive restoration to sound dentin (Example 2)", "design": "species or system human", "conditions": "5% glutaraldehyde for 5 minutes, versus control (p=0.2395)", "method": "as §1, §2, §3"}, "[4]": {"experiment": "UTS of demineralized crown dentin tested parallel and perpendicular to dentinal tubules (Example 4)", "conditions": "1 hour", "method": "Specific synthetic and natural chemicals may increase the number of collagen cross-links within tooth dentin. To evaluate the effects of two cross-linking agents of different concentrations on the UTS of demineralized crown dentin tested parallel and perpendicular to dentinal tubules, the experiment described below was performed. FIG. 6 illustrates the steps of specimen preparation and treatment.\nTwenty sound molars were sectioned into 0.5±0.1 mm thick slabs that were further trimmed to 0.5±0.1 mm according to the tubule orientation (parallel-PR or perpendicular-PE). Specimens were demineralized with 10% phosphoric acid and divided into 10 groups according to treatment: control (water solution)/PR; control/PE, 6.5% proanthocyanidin (PA)/PR, 6.5% PA/PE; 0.65% PA/PR; 0.65% PA/PE; 25% glutaraldehyde (GD)/PR; 25% GD/PE; 5% GD/PR; 5% GD/PE. Specimens were kept in their respective solutions for 1 hour. To assess UTS, specimens were subjected to tensile forces at a crosshead speed of 1 mm/min. Statistical analysis was performed using two-way ANOVA and Fisher's PLSD test (p<0.05)."}}}
{"smiles": "O=CCCCC=O", "note": "[GD, glutaraldehyde]", "values": [{"measurement": "Ultimate tensile strength, mean", "setting": "[1]; 4 hours in 0.5% PA", "value": 94.5, "unit": "MPa"}, {"measurement": "Ultimate tensile strength, mean", "setting": "[1]; 40 hours in 0.5% PA", "value": 110.4, "unit": "MPa"}, {"measurement": "Ultimate tensile strength, pooled data", "setting": "[1]; pooled over 4 and 40 hours, 0.5% PA", "value": 102.5, "unit": "A MPa"}, {"measurement": "increase in the bond strength values", "setting": "[2]", "value": 35, "unit": "%"}, {"measurement": "effect on bond strength", "setting": "[3]", "value": "no significant effect"}, {"measurement": "UTS", "setting": "[4]; 5% GD, tested Parallel to dentinal tubules", "value": "9.8 ± 1.5^BCD,b MPa"}, {"measurement": "UTS", "setting": "[4]; 5% GD, tested Perpendicular to dentinal tubules", "value": "15.7 ± 4.9^BCD,a MPa"}, {"measurement": "UTS", "setting": "[4]; 25% GD, tested Parallel to dentinal tubules", "value": "10.7 ± 2.7^B,b MPa"}, {"measurement": "UTS", "setting": "[4]; 25% GD, tested Perpendicular to dentinal tubules", "value": "18.6 ± 5.7^B,a MPa"}]}
